The values that follow come from US20160354373A1, “METHODS OF TREATING ACUTE T CELL LEUKEMIA” (priority 2015, published 2016).

For series [1], the system named is Myc expression signatures. The settings on record: AMD3100 or vehicle for 4 days in vitro, OP9 co-culture.
Procedure: FIG. 14A is a heat map depicting differentially expressed genes (Myc targets are indicated) in primary mouse T-ALL cells after 4 day culture with OP9 cells in the presence of AMD3100 or vehicle (right; n=3). […] Data represents 3 different experiments, with cells pooled from 1-3 mice per experiment.
Primary mouse T-ALL cells isolated from spleen were maintained on OP9 stromal cells in OptiMEM+GlutaMAX (Invitrogen) supplemented with 10% FBS, 5 ng/ml IL-7, penicillin and streptomycin, and 55 μM (3-mercaptoethanol and passaged every 3-4 days onto a fresh feeder layer. OP9 cells were pre-treated with 7.5 ng/mL mitomycin C (Sigma) to prevent feeder cell division. Mouse ETP T-ALL (Treanor et al., “Interleukin-7 Receptor Mutants Initiate Early T Cell Precursor Leukemia in Murine Thymocyte Progenitors with Multipotent Potential,” J. Exp. Med. 211:701-713 (2014), which is hereby incorporated by reference in its entirety) and a T-ALL cell line generated by ENU mutagenesis carrying a Notch1 PEST domain mutation (G7084 (ins)C7085) were maintained on OP9-DLL4 feeders. […]
Total RNA was extracted from samples using RNeasy Plus Mini Kit (Life Technologies). […] RNA libraries were then sequenced on the Illumina HiSeq 2000 or 2500 using 50 bp single-end reads. […]
The conditions of series [2]: recent clinical trials data; cited from earlier work.
Series [3] has as its system Notch1-ΔE-IRES-GFP+ T-ALL cells. The settings on record: AMD3465 20 nmol/hour via s.c. osmotic pump vs PBS; two weeks of treatment; started at >5% GFP+ blasts in blood.
Source text: After GFP^+ leukemic cells reached 5% of white blood cells, osmotic pumps filled with AMD3465 (20 nmol/hour) or vehicle (PBS) were implanted subcutaneously (s.c.). The graphs show T-ALL cell numbers in the indicated tissues 2 weeks after treatment initiation. Bars represent the mean. […] After leukemia reached 5% of white blood cells, osmotic pumps filled with AMD3465 (25 nmol/hour) or vehicle were implanted s.c. Analysis was 2 weeks after treatment initiation. […] Values represent the mean frequency of hCD45^+ cells+/−SEM. […] Bars represent the mean.
For inhibition of CXCR4 in primary mouse T-ALL, mice were anaesthetized by isoflurane inhalation and implanted subcutaneously with osmotic pumps (model 2002; Alzet) filled with 40 mM AMD3465 (Tocris) or PBS (flow rate 0.5 ul/hour). […] For CXCR4 inhibition in xenografted patient T-ALL, NOD-SCID mice were implanted with osmotic pumps filled with 50 mM AMD3465 or PBS. Mice implanted with osmotic pumps were sacrificed 14 days later for analysis of tumor burden by flow cytometry.
To this end, two cohorts of lethally irradiated mice were transplanted with Notch1-ΔE-IRES-GFP^+ bone marrow progenitor cells, and after >5% peripheral blood lymphocytes constituted GFP^+ leukemic blasts, AMD3465 (20 nmol/hour) or PBS was administered via osmotic pump.
The subject of series [4] is primary human T-ALL cells (hCD45+). The settings on record: two weeks.
Source text: After GFP^+ leukemic cells reached 5% of white blood cells, osmotic pumps filled with AMD3465 (20 nmol/hour) or vehicle (PBS) were implanted subcutaneously (s.c.). […] After leukemia reached 5% of white blood cells, osmotic pumps filled with AMD3465 (25 nmol/hour) or vehicle were implanted s.c. Analysis was 2 weeks after treatment initiation. […] Values represent the mean frequency of hCD45^+ cells+/−SEM.
For human xenograft studies, NOD-SCID donor mice were used. […] 1-5×10^6 cells patient cells were transplanted into immunodeficient mouse strains via retro-orbital injection. Cells from spleen of these primary recipients were used for experiments.
For CXCR4 inhibition in xenografted patient T-ALL, NOD-SCID mice were implanted with osmotic pumps filled with 50 mM AMD3465 or PBS. Mice implanted with osmotic pumps were sacrificed 14 days later for analysis of tumor burden by flow cytometry.
First, the primary human leukemia cells were expanded in immune-deficient NOD/MrkBomTac-Prkdc^scid (NOD-SCID) hosts for 6 weeks. Subsequently, two million human T-ALL cells were transplanted into secondary NOD-SCID hosts and peripheral blood was monitored for the appearance of human CD45+ (hCD45+) leukemic cells. Once leukemia constituted >5% of white blood cells in blood, treatment began with AMD3465 or vehicle using osmotic pumps. Two weeks later, animals were sacrificed and the leukemia burden was assessed.
For series [5], the system named is Myc. The settings on record: 8 hours after s.c. AMD3465, 2 doses of 25 mg/kg 4 hours apart, vs PBS; wild-type T-ALL.
Procedure: Whole cell lysates were prepared in RIPA buffer (50 mM Tris-HCl, 150 mM NaCl, 1% NP-40, 0.25% sodium deoxycholate, 5 mM EDTA) containing complete Mini protease and phosSTOP phosphatase inhibitors (Roche) and resolved by 8% SDS-PAGE gel electrophoresis. Proteins were transferred to nitrocellulose membranes (Bio-Rad) and probed with primary antibodies raised against c-Myc (polyclonal, Cell Signaling Technologies); 0-tubulin (polyclonal, Abcam); and β-actin (clone C4, Santa Cruz Biotechnologies). Following incubation with horseradish peroxidase (HRP)-conjugated anti-mouse or anti-rabbit secondary antibodies (Jackson laboratories), proteins were detected using the SuperSignal West Pico ECL Kit (Thermo Scientific) and exposed to film or imaged using the ChemiDoc MP system (Bio-rad).
For inhibition of CXCR4 in primary mouse T-ALL, mice were anaesthetized by isoflurane inhalation and implanted subcutaneously with osmotic pumps (model 2002; Alzet) filled with 40 mM AMD3465 (Tocris) or PBS (flow rate 0.5 ul/hour).
Series [6] concerns Myc. As to conditions: 4 days culture on OP9 cells with AMD3465 or vehicle, in vitro.
Procedure: (§1) Primary mouse T-ALL cells isolated from spleen were maintained on OP9 stromal cells in OptiMEM+GlutaMAX (Invitrogen) supplemented with 10% FBS, 5 ng/ml IL-7, penicillin and streptomycin, and 55 μM (3-mercaptoethanol and passaged every 3-4 days onto a fresh feeder layer. OP9 cells were pre-treated with 7.5 ng/mL mitomycin C (Sigma) to prevent feeder cell division. Mouse ETP T-ALL (Treanor et al., “Interleukin-7 Receptor Mutants Initiate Early T Cell Precursor Leukemia in Murine Thymocyte Progenitors with Multipotent Potential,” J. Exp. Med. 211:701-713 (2014), which is hereby incorporated by reference in its entirety) and a T-ALL cell line generated by ENU mutagenesis carrying a Notch1 PEST domain mutation (G7084 (ins)C7085) were maintained on OP9-DLL4 feeders. AMD3100 octahydrochloride hydrate (10 ug/mL in water; Sigma), AMD3465 hexahydrobromide (50 ug/mL in water; Tocris or Cayman Chemical) or the corresponding vehicle was added to culture media at the start of the culture period.
For series [7], the system named is primary mouse T-ALL cells. The settings on record: MIG-IRES-GFP-cMyc vs control transduced cells; 4 days OP9 co-culture.
Procedure: Data represents 1 experiment with 3 replicates per group for each AMD3465 concentration tested. Error bars represent +/−SD.
as §1

Structures are written as SMILES.

Turning to `c1cc(CN2CCCNCCNCCCNCC2)ccc1CN1CCCNCCNCCCNCC1` [AMD3100, 1,1′-[1,4-phenylenebis(methylene)]bis[1,4,8,11-tetraazacyclotetradecane]], in series [1], the “enrichment of genes down-regulated by treatment in Myc DNA binding databases (GSEA)” value is reported as “significant enrichment”. Besides, in series [2], the absorption entry is reported as “absorbed quickly” and the tolerability entry is given as “well tolerated”.
As for `c1ccc(CNCc2ccc(CN3CCCNCCNCCCNCC3)cc2)nc1` [AMD3465, N[1,4,8,11-tetraazacyclotetradecanyl-1,4-phenylene-bis-(methylene)]-2-aminomethyl-pyridine], the “leukemia burden across all tissues surveyed (T-ALL cell numbers)” value in series [3] was “substantial reduction”. The “number of hCD45+ cells in blood and spleen” value in series [4] (AMD3465 25 nmol/hour via s.c. osmotic pump vs vehicle, patient 1 and 2 xenografts in NOD-SCID) is reported as “significantly reduced”. For the same compound, the “T-ALL infiltration of brain, liver and lungs (histo-pathological analysis)” value in series [4] (AMD3465 via osmotic pump vs PBS, patient 1 xenograft) is reported as “virtually leukemia-free”. In addition, in series [4] (AMD3465 via osmotic pump vs vehicle (PBS), xenografted NOD-SCID mice), the splenomegaly result is reported as “substantially decreased”. The “Myc protein levels in T-ALL cells” value in the series with Myc [5] is given as “reduced”. In addition, the “Myc protein expression (MYC-GFP fusion allele) in mouse LIC cells” value with Myc [6] is given as “Reduced”. Also, in series [7], the “proliferation of T-ALL cells in the presence of AMD3465 upon Myc overexpression” value is “partially restored”.
